Counter-ions that a name gives are not always drawn.
Target: CCR8 (Homo sapiens, UniProt P51685)
Assay: Tango assay (Tango-CCR8-Gal4-CHO-K1 cells, CCL1-stimulated, ONE-Glo luminescence)
Conditions: Tango Assay IC50, Inhibition of CCR8 Tango cell in vitro
Procedure: The Tango cell line was used to monitor antagonists-mediated receptor inactivation.
Tango cells (Tango-CCR8-Gal4-CHO-K1 cells constructed by Genomeditech) were passaged in complete medium (F12K, 10% FBS, 1% penicillin-streptomycin, 4 μg/ml puromycin, 4 μg/ml blasticidin and 100 μg/ml hygromycin) in incubator (37° C., 5% CO2).
Twenty-four hours before the seed, cells were cultured in 10 or 15 cm dish at a density of 30% confluence in culture medium (F12K, 10% FBS, 1% penicillin-streptomycin).
Cells were suspended in starving medium (F12K, 1% FBS, 1% penicillin-streptomycin) before being seeded into black/clear 96 wells (1×10^4 cells/70 μl/well) and incubated for 6 hours (37° C., 5% CO2). Different concentration of compound, dissolved in DMSO, was into the 96-well plates, with 50 μl in each well, and incubation continued for 1 hour at 37° C.
After the incubation, the medium was removed and the 96-well plate was put in −80° C. freezer for an hour or longer. The plate and the ONE-Glo reagent (Promega, Catalog Number: E6110) which was frozen in −80° C., were taken out and rewarmed to room temperature. The ONE-Glo working reagent was prepared by mixing ONE-Glo reagent with F12K (no FBS) (1:2), and 40 μl ONE-Glo working reagent was added into each well. After incubating for 10 minutes at room temperature, the plate was read using microplate luminescence reader at 560 nm.
The microplate reader records luminescence in relative luminescence units (RLU).

Sequence of CCR8 (P51685 whole entry, the tested form may be a part): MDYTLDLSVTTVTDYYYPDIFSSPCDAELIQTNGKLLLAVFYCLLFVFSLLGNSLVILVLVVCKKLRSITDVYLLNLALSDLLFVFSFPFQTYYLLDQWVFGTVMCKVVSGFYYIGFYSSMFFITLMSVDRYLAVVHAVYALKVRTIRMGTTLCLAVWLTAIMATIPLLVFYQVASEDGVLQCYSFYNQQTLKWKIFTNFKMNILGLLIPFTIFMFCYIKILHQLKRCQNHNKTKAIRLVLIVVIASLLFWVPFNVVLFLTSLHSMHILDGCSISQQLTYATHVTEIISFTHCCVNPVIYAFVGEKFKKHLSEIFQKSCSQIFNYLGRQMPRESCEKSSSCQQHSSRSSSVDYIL

| SMILES | IC50 [µM] |
| --- | --- |
| CCCC(=O)N1CCC(NS(=O)(=O)c2ccc(N)cc2)CC1 [Compound 119, 4-amino-N-(1-butyrylpiperidin-4-yl)benzenesulfonamide] | > 10 |
| CCCC(=O)N1CCC(NS(=O)(=O)c2ccc(Nc3ncnc4ccccc34)cc2)CC1 [Compound 120, N-(1-butyrylpiperidin-4-yl)-4-(quinazolin-4-ylamino)benzenesulfon-amide] | > 10 |
| Cc1cc(S(=O)(=O)N[C@H](C)C2CCNCC2)ccc1N1C(=O)c2ccccc2C1=O [Compound 122A, (R)-4-(1,3-dioxoisoindolin-2-yl)-3-methyl-N-(1-(piperidin-4-yl)ethyl)benzenesulfon-amide hydrochloride] | > 10 |
| Cc1ccccc1C(=O)Nc1ccc(S(=N)(=O)NC(C)C2CCCCC2)c2ccccc12 (stereo not drawn) [Compound 123, N-(4-(N-(1-cyclohexylethyl)sulfamimidoyl)naphthalen-1-yl)-2-methylbenzamide] | 0.0034 |
| Cc1ccccc1C(=O)Nc1ccc(S(=O)(=O)NC(C)c2ccccc2N)c2ccccc12 (stereo not drawn) [Compound 124, N-(4-(N-(1-(2-aminophenyl)ethyl)sul-famoyl)naphthalen-1-yl)-2-methylbenzamide] | 0.832 |
| CC(=O)Nc1ccccc1C(C)NS(=O)(=O)c1ccc(NC(=O)c2ccccc2C)c2ccccc12 (stereo not drawn) [Compound 125, N-(4-(N-(1-(2-acetamidophenyl)ethyl)sulfamoyl)naphthalen-1-yl)-2-methylbenzamide] | > 10 |
| Cc1ccccc1C(=O)Nc1ccc(S(=O)(=O)NC(C)CC2CCNCC2)c2ccccc12 (stereo not drawn) [Compound 126, 2-methyl-N-(4-(N-(1-(piperidin-4-yl)propan-2-yl)sulfamoyl)naphtha-len-1-yl)benzamide] | 0.133 |
| Cc1ccccc1C(=O)Nc1ccc(S(=O)(=O)NC(C)CC2CCN(C(=O)OC(C)(C)C)CC2)c2ccccc12 (stereo not drawn) [Compound 127, tert-butyl 4-(2-(4-(2-methylbenzamido)naphthalene-1-sulfonamido)propyl) piperidine-1-carboxylate] | 0.575 |
| Cc1ccccc1C(=O)Nc1ccc(S(=O)(=O)NC(C)C=C2CCCCC2)c2ccccc12 (stereo not drawn) [Compound 130, N-(4-(N-(1-cyclohexylidene-propan-2-yl)sulfamoyl)naphtha-len-1-yl)-2-methylbenzamide] | 0.01 |
| Cc1ccccc1C(=O)Nc1ccc(S(=O)(=O)NC(C)C23CCN(CC2)CC3)c2ccccc12 (stereo not drawn) [Compound 131, 2-methyl-N-(4-(N-(1-(quinuclidin-4-yl)ethyl)sulfamoyl)naphthalen-1-yl)benzamide] | 0.303 |
| Cc1ccccc1C(=O)Nc1ccc(S(=O)(=O)NC(C)C23CCC(CC2)CC3)c2ccccc12 (stereo not drawn) [Compound 132, N-(4-(N-(1-(bicyclo[2.2.2]octan-1-yl)ethyl)sulfamoyl)naphthalen-1-yl)-2-methylbenzamide] | 0.0032 |
| CC(NS(=O)(=O)c1ccc2[nH]c(=O)[nH]c(=O)c2c1)C1CC2CCC1CC2 (stereo not drawn) [Compound 133, N-(1-(bicyclo[2.2.2]octan-2-yl)ethyl)-2,4-dioxo-1,2,3,4-tetrahydroquinazoline-6-sulfonamide] | > 10 |
| CC(NS(=O)(=O)c1ccc2c(c1)C(=O)NCC2)C1CC2CCC1CC2 (stereo not drawn) [Compound 134, N-(1-(bicyclo[2.2.2]octan-2-yl)ethyl)-1-oxo-1,2,3,4-tetrahydroisoquinoline-7-sulfonamide] | > 10 |
| CC(NS(=O)(=O)c1ccc2c(c1)C(=O)NCCC2)C1CC2CCC1CC2 (stereo not drawn) [Compound 135, N-(1-(bicyclo[2.2.2]octan-2-yl)ethyl)-1-oxo-2,3,4,5-tetrahydro-1H-benzo[c]azepine-8-sulfonamide] | > 10 |
| CC(NS(=O)(=O)c1ccc2[nH]c(=O)cnc2c1)C1CC2CCC1CC2 (stereo not drawn) [Compound 136, N-(1-(bicyclo[2.2.2]octan-2-yl)ethyl)-2-oxo-1,2-dihydroquinoxaline-6-sulfonamide] | > 10 |
| CC(NS(=O)(=O)c1ccc2c(c1)C(=O)NC2=O)C1CC2CCC1CC2 (stereo not drawn) [Compound 137, N-(1-(bicyclo[2.2.2]octan-2-yl)ethyl)-1,3-dioxoisoindoline-5-sulfonamide] | > 10 |
| CC(NS(=O)(=O)c1ccc2cnccc2c1)C1CC2CCC1CC2 (stereo not drawn) [Compound 139, N-(1-(bicyclo[2.2.2]octan-2-yl)ethyl)isoquinoline-6-sulfonamide] | > 10 |
| CC(NS(=O)(=O)c1cccc(C(=O)O)c1)C1CCCCC1 (stereo not drawn) [Compound 140, 3-(N-(1-cyclohexylethyl)sul-famoyl)benzoic acid] | > 10 |
| CC(NS(=O)(=O)c1ccc(F)c(C(=O)O)c1)C1CCCCC1 (stereo not drawn) [Compound 141, 5-(N-(1-cyclohexylethyl)sul-famoyl)-2-fluorobenzoic acid] | > 10 |
| Cc1c(C(=O)O)cccc1S(=O)(=O)NC(C)C1CC2CCC1CC2 (stereo not drawn) [Compound 142, 3-(N-(1-(bicyclo[2.2.2]octan-2-yl)ethyl)sulfamoyl)-2-methylbenzoic acid] | > 10 |
| Cc1c(C(=O)O)cccc1S(=O)(=O)NC(C)C1CCCCC1 (stereo not drawn) [Compound 143, 3-(N-(1-cyclohexylethyl)sul-famoyl)-2-methylbenzoic acid] | > 10 |
| CC(NS(=O)(=O)c1ccc2nc(Cc3ccccc3)[nH]c2c1)C1CCCCC1 (stereo not drawn) [Compound 144, 2-benzyl-N-(1-cyclohexylethyl)-1H-benzo[d]imidazole-6-sulfonamide] | 2.1 |
| CC(NS(=O)(=O)c1ccc2nc(Nc3ccccc3)[nH]c2c1)C1CCCCC1 (stereo not drawn) [Compound 145, N-(1-cyclohexylethyl)-2-(phenylamino)-1H-benzo[d]imidazole-6-sulfonamide] | 0.87 |
| CC(NS(=O)(=O)c1ccc(-c2[nH]nnc2-c2ccccc2)c2ccccc12)C1CCCCC1 (stereo not drawn) [Compound 148, N-(1-cyclohexylethyl)-4-(4-phenyl-1H-1,2,3-triazol-5-yl)naphthalene-1-sulfonamide] | 0.613 |
| CC(NS(=O)(=O)c1ccc(-c2cc3ccccc3[nH]2)c2ccccc12)C1CCCCC1 (stereo not drawn) [Compound 149, N-(1-cyclohexylethyl)-4-(1H-indol-2-yl)naphthalene-1-sulfonamide] | > 10 |
| CC(NS(=O)(=O)c1ccc(-c2nn[nH]n2)c2ccccc12)C1CCCCC1 (stereo not drawn) [Compound 150, N-(1-cyclohexylethyl)-4-(2H-tetrazol-5-yl)naphthalene-1-sulfonamide] | > 10 |
| CC(=O)Nc1ccccc1COc1ccc(S(=O)(=O)NC(C)C2CCCCC2)c2ccccc12 (stereo not drawn) [Compound 151, N-(2-(((4-(N-(1-cyclohexylethyl)sulfamoyl)naphthalen-1-yl)oxy)methyl)phenyl)acetamide] | 1.36 |
| CC(NS(=O)(=O)c1cccc(N2CCCC2C(=O)O)c1)C1CCCCC1 (stereo not drawn) [Compound 152, 1-(3-(N-(1-cyclohexylethyl)sulfam-oyl)phenyl)pyrrolidine-2-carboxylic acid] | > 10 |
| CC(NS(=O)(=O)c1cccc(N2CCCCC2C(=O)O)c1)C1CCCCC1 (stereo not drawn) [Compound 153, 1-(3-(N-(1-cyclohexylethyl)sulfam-oyl)phenyl)piperidine-2-carboxylic acid] | > 10 |
| CC(NS(=O)(=O)c1cccc(N2CCC(C(=O)O)C2)c1)C1CCCCC1 (stereo not drawn) [Compound 154, 1-(3-(N-(1-cyclohexylethyl)sulfam-oyl)phenyl)pyrrolidine-3-carboxylic acid] | > 10 |

From patent publication US12552753B2, “Methods and compositions for targeting Tregs using CCR8 inhibitors” (Nanjing Immunophage Biomedical Co., Ltd., priority 2020, dated 2026)
